Test results reported in patent US20120015396A1, “COMPOSITIONS AND METHODS FOR MODULATING THE ACID-SENSING ION CHANNEL (ASIC)” (Department of Veteran's Affair, United States Technology …, priority 2002, published 2012).

How the values were obtained:
[1] = tested on: Schaffer collateral-CA1 synapses in hippocampal slices; experiment: Baseline field EPSP recording in hippocampal slices; assay type: cell-based; settings: KA 5 mM; slices from +/+ and −/− mice
Experimental: (§1) Transverse hippocampal slices (350-400 μm) were prepared from wild type (+/+) and ASIC knock out (−/−) littermates at 2-4 months of age. For the LTP studies, the applicant was blinded to genotype. The slices were sectioned in ice-cold artificial cerebrospinal fluid (ACSF) containing (in mM) 119 NaCl, 2.5 KCl, 2.5 CaCl2, 1.0 NaH2PO4, 1.3 MgSO4, 26.2 NaHCO3, 11 glucose, pH 7.4, bubbled with 95% O2/5% CO2, and then were incubated in identical solution at 31° C. for 2-5 hours before recording.
Standard extracellular field potential recording techniques were used. Experiments were performed in a submerged chamber, heated to 31±0.5° C. Field postsynaptic excitatory potentials (EPSPs) were evoked in CA1 stratum radiatum by stimulation of Schaffer collaterals with a bipolar stainless steel electrode that was put at the border of CA3-CA1 subfields and recorded with 3M NaCl-filled glass pipettes (<5 MSΩ) using a biological amplifier (WPI, Iso-DAME, FL., USA). A 100 μs test stimulation was delivered every 30 s by a stimulus isolation unit (Grass, SD9, Mass., USA). […] LTP was measured by normalizing the EPSP slopes after HFS to the mean slope of the baseline EPSP before HFS. Data were digitized (10 kHz), filtered at 1 kHz (eight-pole Bessel Filter), monitored on-line, and stored on hard disk using PULSE 8.41 (HEKA, Lambrecht, Germany). […]

[2] = tested on: Schaffer collateral-CA1 synapses in hippocampal slices; experiment: LTP induced by HFS in hippocampal slices; assay type: cell-based, mice; settings: 10 μM PMA
Experimental: as §1
Standard extracellular field potential recording techniques were used. Experiments were performed in a submerged chamber, heated to 31±0.5° C. Field postsynaptic excitatory potentials (EPSPs) were evoked in CA1 stratum radiatum by stimulation of Schaffer collaterals with a bipolar stainless steel electrode that was put at the border of CA3-CA1 subfields and recorded with 3M NaCl-filled glass pipettes (<5 MSΩ) using a biological amplifier (WPI, Iso-DAME, FL., USA). A 100 μs test stimulation was delivered every 30 s by a stimulus isolation unit (Grass, SD9, Mass., USA). Input-output curves were obtained by plotting the stimulus voltage against the amplitude of EPSPs. […] Stimulus intensity was adjusted to evoke half-maximal responses. LTP was induced by a high-frequency stimulation (HFS, 100 Hz, 1 s, at test intensity). Paired-pulse facilitation (PPF) was observed by applying paired pulses with different intervals (20, 50 ms). LTP was measured by normalizing the EPSP slopes after HFS to the mean slope of the baseline EPSP before HFS. Data were digitized (10 kHz), filtered at 1 kHz (eight-pole Bessel Filter), monitored on-line, and stored on hard disk using PULSE 8.41 (HEKA, Lambrecht, Germany). Off-line analysis was performed by PATCHMACHINE 1.0 (Hoshi Laboratory, Philadelphia, Pa., USA) and IGORPRO 4.0 (WaveMetrics, Lake Oswego, Oreg., USA). Unless otherwise noted, two-sample t-test was used to calculate statistical

[3] = tested on: cortical neurons; settings: primary cultures of cortical neurons; cited from earlier work
[4] = target: T1, ASIC channels (Homo sapiens, UniProt P78348); settings: cited from earlier work
T1 sequence (P78348 1-528): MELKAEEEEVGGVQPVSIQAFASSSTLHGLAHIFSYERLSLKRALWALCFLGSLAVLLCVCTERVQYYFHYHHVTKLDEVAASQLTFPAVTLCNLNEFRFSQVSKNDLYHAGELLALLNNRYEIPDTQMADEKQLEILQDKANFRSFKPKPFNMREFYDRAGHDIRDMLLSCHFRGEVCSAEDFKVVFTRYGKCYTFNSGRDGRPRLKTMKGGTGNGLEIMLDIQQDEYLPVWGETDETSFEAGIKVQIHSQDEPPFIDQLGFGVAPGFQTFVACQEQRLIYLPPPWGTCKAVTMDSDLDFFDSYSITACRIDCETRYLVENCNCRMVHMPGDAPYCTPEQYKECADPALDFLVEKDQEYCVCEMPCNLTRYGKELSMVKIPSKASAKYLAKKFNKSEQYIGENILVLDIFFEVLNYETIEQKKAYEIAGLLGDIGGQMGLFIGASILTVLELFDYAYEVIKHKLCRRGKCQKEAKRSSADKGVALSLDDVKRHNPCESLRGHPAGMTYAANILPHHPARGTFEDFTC

O=C(O)c1cc(=O)c2ccccc2[nH]1 [KA, kynurenic acid]
effect on baseline EPSPs [1]: abolished EPSPs

CCCCCCCCCCCCCC(=O)O[C@@H]1[C@@H](C)[C@@]2(O)[C@@H](C=C(CO)C[C@]3(O)C(=O)C(C)=C[C@@H]23)[C@@H]2C(C)(C)[C@]12OC(C)=O [PMA, phorbol 12-myristate 13-acetate]
Mean EPSP amplitude at 40 min. following HFS ([2]; +/+ slices): 167±15% | Mean EPSP amplitude at 40 min. following HFS ([2]; −/− slices): 158±11% | effect on LTP ([2]; −/− slices): restores LTP

N=C(N)NC(=O)c1nc(Cl)c(N)nc1N [amiloride]
effect on H+-evoked currents [3]: inhibition

Phe-Met-Arg-Phe-NH2 [FMRFamide]
modulation of the response of ASIC channels to acid [4]: generating a sustained component of current

neuropeptide FF
modulation of the response of ASIC channels to acid [4]: generating a sustained component of current
